Measurements from patent US9051271B2, “Substituted pyridine derivatives useful in the treatment of cancer” (United Arab Emirates University, priority 2012, dated 2015).
Like-named read-outs stand apart in the source and are kept apart here.

Columns and labels:
MDA-MB-231 cells = assay: Cell Titer-Glo Luminescent Cell Viability assay, breast cancer cells; assay type: cell-based, Human; conditions: half-maximal inhibition at 24 h
Protocol: (§1) Human breast cancer cells MDA-MB-231 and colorectal cancer cells HT29, were maintained in DMEM medium (Invitrogen, Cergy Pontoise, France). Human lung cancer cells NCI-H460-Luc2 (Caliper Life Sciences, US) (NSCLC) were maintained in RPMI 1640 (Hyclone Thermo Scientific, MA United States). All media were supplemented with antibiotics (penicillin 50.00 U/ml; streptomycin […]) (Invitrogen, Cergy Pontoise, France) and 10.00% fetal bovine serum (FBS, Biowest, Nouaille, France).
Cells were seeded in 96-well plates at a density of 5,000 cells/well. […] Control culture cells were treated with 0.10% DMSO.
(§2) The effect of the test compounds on cell viability was determined using a Cell Titer-Glo Luminescent Cell Viability assay (Promega Corporation, Madison, USA), based on quantification of ATP, which signals the presence of metabolically active cells. Luminescent signal was measured using GLOMAX Luminometer system. The data were presented as proportional viability (%) by comparing the treated group with the untreated cells, the viability of which is assumed to be 100%.
(§3) Inhibition rates ranged between 50.00 and 98.00% were recorded for all compounds at 100.00 μM concentration. The IC50 is the concentration at which half-maximal inhibition occurs at 24 h. Approximate IC50 value of 100.00 μM was obtained after 24.00 hours.
(§4) Exponentially growing MDA-MB-231, NCI-H460-Luc2 and HT29 cells were treated with vehicle (0.10% DMSO) and the indicated concentrations of investigated compounds. Viable cells were assayed as described in Materials and Methods. Exposure times of 24.00 and 48.00 hours were applied. All experiments were repeated at least three times.

HT29 cells = assay: Cell Titer-Glo Luminescent Cell Viability assay, colorectal cancer cells; assay type: cell-based, Human; conditions: death of 50% of the cells, half-maximal inhibition at 24 h, read-out: IC50 HT29 Colon Cancer
Protocol: as §1
(§5) Cells were seeded in 96-well plates at a density of 5,000 cells/well. After 24.00 hours of seeding, resultant cells' arrays were treated for 24.00-48.00 hours with increasing concentrations of the test compounds (5.00-100.00 μM), in triplicates. Control culture cells were treated with 0.10% DMSO.
as §2
as §3, with “The effects of investigated compounds at concentrations 5.00-100.00 μM on MDA-MB-231, NCI-H460-Luc2 and HT29 cells were investigated after 24.00 and 48.00 hours exposures. […] Inhibition” for “Inhibition”
as §4

NCI-H460-Luc2 cells = assay: Cell Titer-Glo Luminescent Cell Viability assay, lung cancer cells; assay type: cell-based, Human; conditions: death of 50% of the cells, half-maximal inhibition at 24 h
Protocol: as §1, §5, §2
as §3, with “The effects of investigated compounds at concentrations 5.00-100.00 μM on MDA-MB-231, NCI-H460-Luc2 and HT29 cells were investigated after 24.00 and 48.00 hours exposures. […] Inhibition” for “Inhibition”
as §4

melting point | SMILES | IC50 (MDA-MB-231 cells; Homo sapiens, MDA-MB-231) | IC50 (HT29 cells; Homo sapiens, HT-29) | IC50 (NCI-H460-Luc2 cells; Homo sapiens) | IC50 (MDA-MB-231 cells) | IC50 (HT29 cells) | IC50 (NCI-H460-Luc2 cells)
257 °C | Cc1[nH]c(=O)c(C#N)c(C)c1N=Nc1ccccc1F [Ia, 3-Cyano-4,6-dimethyl-5-(2′-fluorophenylazo)-pyridine-2(1H)-one] | 483 µM | – | – | – | – | –
252 °C | Cc1c(N=Nc2ccc(F)cc2)c(-c2ccccc2)[nH]c(=O)c1C#N [If, 3-Cyano-4-methyl-6-phenyl-5-(4′-fluorophenylazo)-pyridine-2(1H)-one] | 75.4 µM | 93.9 µM | 30 µM | – | – | –
– | Cc1c(N=Nc2ccc([N+](=O)[O-])cc2)c(-c2ccccc2)[nH]c(=O)c1C#N [Ih, 3-Cyano-4-methyl-6-phenyl-5-(4′-nitronthenylazo)-pyridine-2(1H)-one] | – | – | – | 172 µM | 29.9 µM | 30.7 µM
225 °C | Cc1c(N=Nc2ccccc2F)c(-c2ccccc2)[nH]c(=O)c1C#N [Id, 3-Cyano-4-methyl-6-phenyl-5-(2′-fluorophenylazo)-pyridine-2(1H)-one] | – | – | – | – | – | –
272 °C | Cc1[nH]c(=O)c(C#N)c(C)c1N=Nc1ccc(F)cc1 [Ic, 3-Cyano-4,6-dimethyl-5-(4′-fluorophenylazo)-pyridine-2(1H)-one] | 216 µM | – | – | – | – | –
– | Cc1[nH]c(=O)c(C#N)c(C)c1N=Nc1ccc([N+](=O)[O-])cc1 [Compound Ig, 3-Cyano-4,6-dimethyl-5-(4′-nitrorthenylazo)-pyridine-2(1H)-one] | – | – | – | 72.4 µM | 39 µM | 29.8 µM
237 °C | Cc1c(N=Nc2cccc(C(F)(F)F)c2)c(-c2ccccc2)[nH]c(=O)c1C#N [Ie, 3-Cyano-4-methyl-6-phenyl-5-(3′-trifluoromethylphenylazo)-pyridine-2(1H)-one] | 90.5 µM | 64.5 µM | 35.9 µM | – | – | –
265 °C | Cc1[nH]c(=O)c(C#N)c(C)c1N=Nc1cccc(C(F)(F)F)c1 [Ib, 3-Cyano-4,6-dimethyl-5-(3′-trifluoromethylphenylazo)-pyridine-2(1H)-one] | 270 µM | – | – | – | – | –
